Laboratory results taken from patent publication US4481141A, “Nondiffusible yellow metallized azo dye-releasing compounds” (Eastman Kodak Company, priority 1983, dated 1984).
Entries after “also recorded” stand apart in the source; their conditions may differ.

Legend:
Format in all cases: physicochemical
[1] = Dye solution spectra of Ni-dye complexes (Table I); conditions: 3:1 dioxane:water, pH 7, excess nickel ion
Description: (§1) The receiver was removed from the dye solution, washed in distilled water, placed in a pH 7.0 buffer solution and dried. Transmission spectra obtained on each sample of the mordanted dyes were normalized by computer to a density of 1.0. The characteristic wavelength of the dye, λ1/2 in nm, is the mean of the wavelength limits of the absorption envelope at half the maximum density. The HBW ("half band width") in nm is the range or distance between those limits. The dye solution spectrum in 3:1 dioxane:water at pH 7 in the presence of excess nickel ion is also given.

[2] = Light stability of mordanted dyes (HID fade, Table I); conditions: unmetallized dye; nickel layer/poly(4-vinylpyridine) receiver; 10 days HID, 50,000 lux, 38° C., pH 7
Method: (§2) A receiving element was prepared comprising a poly(ethylene terephthalate) film support having thereon a nickel sulfate hexahydrate (0.58 g/m^2)/gelatin (1.08 g/m^2) metal complexing layer, and a poly(4-vinylpyridine)/gelatin mordant layer (each at 2.15 g/m^2), which forms metal complexes with the unmetallized dyes. […]
The above receiving elements at pH 7 were then subjected to 10 days irradiation by a high intensity daylight (HID), 6000 W Xenon arc lamp, the sample receiving 50,000 lux through a Wratten 2B (ultraviolet) filter at approximately 38° C. and low humidity. The percent fade represents the loss in density at λmax after irradiation.

[3] = Dye diffusion, solution test; conditions: 0.0025M dye, pH 13.4
Description: (§3) The released dyes in Table I were also subjected to the conditions of two different dye diffusion tests. One, the "solution test" involved dissolving the dye in a viscous composition and transferring it through a receiving element which contains an opaque and reflecting layer in addition to the mordant layer. The other, a "gel pad test" involved imbibing the dye from solution into a thick gelatin layer, and then transferring it by direct lamination to the same receiving element which had been preswollen by soaking 5 minutes in a solution of 0.1 potassium hydroxide. The receiver for these tests had the following composition (coverages are parenthetically given in g/m^2):
(§4) A transparent poly(ethylene terephthalate) film support coated with
(§5) (1) a mordant layer of poly(styrene-co-N-vinylbenzyl-N-benzyl-N,N-dimethylammonium chloride-co-divinylbenzene) (2.28) and gelatin (2.28);
(§6) (2) an opaque and reflecting layer of carbon black (1.88) in gelatin (1.23) and titanium dioxide (16.1) in gelatin (2.63); and
(§7) (3) an overcoat layer of gelatin (4.3).
Approximately 0.075 mmol of the released dye was dissolved in 10 ml of 0.125N potassium hydroxide. After the dye was completely dissolved, 20 ml of a viscous composition was added; and the resulting solution, stirred for at least 20 minutes, was 0.0025M in dye at a pH of 13.4. The viscous composition was prepared from 46.2 g potassium hydroxide and 54 g carboxymethylcellulose dissolved in 1200 ml water. […] Measurement of the rate of dye diffusion was commenced at the point at which half of the laminate had passed through the rollers. The appearance of dye on the mordant was measured at λmax as diffuse reflection density vs. time. The reflection density was converted to transmission density by computer with the aid of a mathematical relation derived from a previous calibration. A plot of transmission density, which is proportional to concentration vs. time, was derived; and the value of t-1/2 of dye transfer, the time in seconds required to obtain one-half of the maximum transmission density, calculated.

[4] = Transmission spectra of mordanted dyes on receiving element (Table I); conditions: unmetallized dye; nickel sulfate layer/poly(4-vinylpyridine) mordant receiver; pH 7.0
Method: as §2, §1

[5] = Comparison with prior art: absorption in dioxane/water with and without nickel ions
Method: In U.S. Pat. No. 4,148,643, Compound J in column 32 is the nickel complex of the following dye compound: [drawing 20] The nickel-dye complex is listed as having a λmax of 462 nm and a half-band width of 76 nm when adsorbed to a cationic polymeric mordant on a film strip. A 1:1 dioxane/water mixture at a pH of 7.0 of this nickel-dye complex was prepared. It absorbed at 444 nm in the presence of excess nickel ions and 402 nm in the absence of nickel ions.
In Table I, Compound C has the following structure: [drawing 21] The compound has a quinoline nitrogen chelating group instead of a hydroxyl chelating group as in Compound J of the '643 patent. A 1:1 dioxane/water mixture at a pH of 7.0 of the above Compound C was prepared. It absorbed at 452 nm in the presence of excess nickel ions and at 387 nm in the absence of nickel ions.

[6] = Dye diffusion, gel pad test
Description: as §3, §4, §5, §6, §7
A donor element, containing a thick pad of deionized acid-processed gelatin (26 g/m^2) hardened with 2 percent bis(vinylsulfonylmethyl)ether, was imbibed with a solution of 0.1M in potassium hydroxide and 1.3×10^-3 M in dye. […]

[7] = Stability of dye:nickel complex under gel pad transfer conditions; conditions: after gel pad diffusion test
Method: A donor element, containing a thick pad of deionized acid-processed gelatin (26 g/m^2) hardened with 2 percent bis(vinylsulfonylmethyl)ether, was imbibed with a solution of 0.1M in potassium hydroxide and 1.3×10^-3 M in dye. The pad was soaked to full penetration, surface wiped, and then laminated in direct contact to the above receiving element which had been presoaked for 5 minutes at 0.1M KOH. The t-1/2 of dye transfer was obtained as in the solution test. The diffusion times by the "gel pad test" are substantially longer than by the "solution test".
When the unmetallized dye ligand of Compound J of the '643 patent and the 1:1 complex thereof were subjected to the gel pad diffusion test as described in Example 1, the values obtained were 66 sec. and 146 sec., respectively.

SMILES | Spectra of Ni-Dye Complexes, Dye Solution, HBW (half band width) [1] | Spectra of Ni-Dye Complexes, Dye Solution, λ1/2 [1] | % Fade (loss in density at λmax after irradiation) [2] | Dye Diffusion t1/2, Soln. [3] | Spectra of Ni-Dye Complexes, Mordant, HBW (half band width) [4] | Spectra of Ni-Dye Complexes, Mordant, λ1/2 [4] | nature/stability of dye:nickel complex from spectrum ([5]; 0.5 mol Ni^++, listed as Dye C) | absorption wavelength in the presence of excess nickel ions ([5]; 1:1 dioxane/water, pH 7.0, excess nickel ions) | absorption wavelength in the absence of nickel ions ([5]; 1:1 dioxane/water, pH 7.0, no nickel ions) | spectrum at reduced nickel ion concentration ([5]; nickel ion at one-half the molar concentration of the dye) | Dye Diffusion t1/2, Gel Pad ([6]; gel pad test, 0.1M KOH, 1.3×10^-3 M dye) | spectrum of the dye on the receiver after transfer [7] | gel pad diffusion test value ([6]; gel pad diffusion test as in Example 1 (comparison with prior art))
CC(O)=C(C#N)N=Nc1cccc2cccnc12 [A] | 68 nm | 431 nm |  |  |  |  |  |  |  |  |  |  | 
CC(O)=C(C#N)N=Nc1ccc(S(N)(=O)=O)c2cccnc12 [B] | 67 nm | 445 nm | 1.5% | 27 s | 70 nm | 456 nm |  |  |  |  |  |  | 
CC(O)=C(C#N)N=Nc1ccc(S(=O)(=O)Nc2cccc(S(N)(=O)=O)c2)c2cccnc12 [Compound C] | 70 nm | 448 nm | 1.0% | 37 s | 74 nm | 457 nm | stable 2:1 complex of dye to metal; also recorded: much more stable 2:1 dye:nickel complex than compound J of the '643 patent | 452 nm | 387 nm | no change in the spectrum |  |  | 
CC(O)=C(C#N)N=Nc1ccc(S(=O)(=O)Nc2cccc(O)c2)c2cccnc12 [D] | 70 nm | 451 nm | 8.0% | 39 s | 73 nm | 459 nm |  |  |  |  |  |  | 
CC(C)(C)C(O)=C(C#N)N=Nc1ccc(S(N)(=O)=O)c2cccnc12 [E] | 72 nm | 445 nm | 2.0% | 29 s | 69 nm | 456 nm |  |  |  |  |  |  | 
N#CC(N=Nc1cccc2cccnc12)=C(O)c1ccccc1 [F] | 70 nm | 446 nm | 2.0% |  | 75 nm | 458 nm |  |  |  |  |  |  | 
N#CC(N=Nc1ccc(S(N)(=O)=O)c2cccnc12)=C(O)c1ccccc1 [G] | 70 nm | 460 nm | 1.0% | 27 s | 75 nm | 470 nm |  |  |  |  |  |  | 
CC(C)(C)C(O)=C(C#N)N=Nc1ccc(S(=O)(=O)Nc2cccc(S(N)(=O)=O)c2)c2cccnc12 [H] | 70 nm | 450 nm | 3.6% | 40 s | 79 nm | 455 nm |  |  |  |  |  |  | 
CC(O)=C(C#N)N=Nc1ccc(S(=O)(=O)Nc2cccc(C(=O)O)c2)c2cccnc12 [I] | 68 nm | 451 nm | 7.2% | 34 s | 77 nm | 455 nm |  |  |  |  | 127 s |  | 
O=c1c(N=Nc2cccc3cccnc23)c(O)n(-c2ccccc2)n1-c1ccccc1 [L] | 72 nm | 435 nm | 1.0% |  | 77 nm | 439 nm |  |  |  |  |  |  | 
NS(=O)(=O)c1ccc(N=Nc2c(O)n(-c3ccccc3)n(-c3ccccc3)c2=O)c2ncccc12 [M] | 72 nm | 450 nm | 1.0% |  | 77 nm | 459 nm |  |  |  |  |  |  | 
Cc1nn(-c2ccccc2)c(O)c1N=Nc1cccc2cccnc12 [N] | 102 nm | 444 nm | 3.0% |  | 116 nm | 447 nm |  |  |  |  |  |  | 
O=c1oc2ccccc2c(O)c1N=Nc1cccc2cccnc12 [O] | 98 nm | 429 nm | 0.0% |  | 85 nm | 452 nm |  |  |  |  |  |  | 
CC(O)=C(C#N)N=Nc1cc(S(N)(=O)=O)ccc1O [reference compound] |  |  |  |  |  |  |  |  |  |  |  | showed the presence of the unmetallized dye only | 66 s
